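Results reflect a 48-hour exposure of cells in 96-well plates to compound at five concentrations. GI50: concentration for 50% inhibition of growth. The concentration for full growth arrest is given as TGI.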
Key:
Experiment in all cases: growth of human tumour cells (NCI), 48 h
ACHN renal = system: ACHN renal
EKVX NSCLC = system: EKVX NSCLC
HOP-62 NSCLC = system: HOP-62 NSCLC
KM12 colon = system: KM12 colon
NCI-H226 lung = system: NCI-H226 lung
OVCAR-5 ovarian = system: OVCAR-5 ovarian
TK-10 renal = system: TK-10 renal
CCRF-CEM leukemia = system: CCRF-CEM leukemia
MOLT-4 leukemia = system: MOLT-4 leukemia

| SMILES | TGI (ACHN renal) | TGI (EKVX NSCLC) | TGI (HOP-62 NSCLC) | TGI (KM12 colon) | TGI (NCI-H226 lung) | TGI (OVCAR-5 ovarian) | TGI (TK-10 renal) | TGI (CCRF-CEM leukemia) | TGI (MOLT-4 leukemia) | GI50 (ACHN renal) | GI50 (CCRF-CEM leukemia) | GI50 (HOP-62 NSCLC) | GI50 (KM12 colon) | GI50 (MOLT-4 leukemia) | GI50 (NCI-H226 lung) | GI50 (OVCAR-5 ovarian) | GI50 (TK-10 renal) |
| --- | --- | --- | --- | --- | --- | --- | --- | --- | --- | --- | --- | --- | --- | --- | --- | --- | --- |
| CC1=C(C(=O)NCc2ccccc2)C(c2ccc([N+](=O)[O-])cc2)C(C(=O)NCc2ccccc2)=C(C)N1 | 89.7 µM | > 100 µM | > 100 µM | > 100 µM | > 100 µM | 93.5 µM | > 100 µM | – | – | – | – | – | – | – | – | – | – |
| Cc1nc(-c2ccccc2)cc2c1c(=O)oc1ccccc12 | > 100 µM | > 100 µM | > 100 µM | > 100 µM | > 100 µM | > 100 µM | – | > 100 µM | > 100 µM | – | – | – | – | – | – | – | – |
| CC(=O)C1C(=O)NC(=O)C1=O (stereo unspecified) | > 100 µM | > 100 µM | > 100 µM | > 100 µM | > 100 µM | > 100 µM | > 100 µM | – | – | – | – | – | – | – | – | – | – |
| O=C1c2ccccc2NC1(c1ccccc1)c1c(-c2ccccc2)[nH]c2ccccc12 (stereo unspecified) | > 100 µM | > 100 µM | > 100 µM | > 100 µM | – | – | – | > 100 µM | 20.6 µM | – | – | – | – | – | – | – | – |
| O=C(O)/C(Cl)=C(\Cl)C(=O)NC1C2CC3CC(C2)CC1C3 (stereo unspecified) | > 100 µM | > 100 µM | > 100 µM | 96.2 µM | > 100 µM | > 100 µM | – | > 100 µM | > 100 µM | – | – | – | – | – | – | – | – |
| NCCN.NCCN.O=C[O-].O=C[O-].[Co+3].[O-][Cl+3]([O-])([O-])[O-] | > 100 µM | – | > 100 µM | > 100 µM | > 100 µM | > 100 µM | > 100 µM | > 100 µM | > 100 µM | > 100 µM | > 100 µM | > 100 µM | > 100 µM | > 100 µM | > 100 µM | > 100 µM | > 100 µM |
| COc1ccc(Cc2cc3c(cc2OCC(=O)O)OCO3)cc1 | > 100 µM | > 100 µM | > 100 µM | > 100 µM | – | > 100 µM | > 100 µM | > 100 µM | > 100 µM | – | – | – | – | – | – | – | – |
| O=C(c1ccccc1)c1oc2ccc(Br)cc2c1-c1cnn(-c2ccccc2)c1 | > 100 µM | – | > 100 µM | > 100 µM | – | > 100 µM | – | > 100 µM | > 100 µM | – | – | – | – | – | – | – | – |
| CN(CCc1ccccn1)c1nc(=[N+](C)C)ss1 | > 100 µM | > 100 µM | > 100 µM | > 100 µM | – | > 100 µM | > 100 µM | > 100 µM | > 100 µM | – | – | – | – | – | – | – | – |
| CN(C)CCSc1cccc(-c2cc(-c3cccc(SCCN(C)C)c3)nc(SCCN(C)C)n2)c1 | 19.4 µM | 5.24 µM | 30.2 µM | 3.44 µM | – | 19.5 µM | 9.65 µM | 4.8 µM | 4.66 µM | – | – | – | – | – | – | – | – |
| Cc1ccc(NC(=O)C(=O)CC(=O)C2CCOC2=O)c(C)c1 (stereo unspecified) | > 100 µM | > 100 µM | > 100 µM | > 100 µM | > 100 µM | > 100 µM | > 100 µM | > 100 µM | – | – | – | – | – | – | – | – | – |
| CN1C(c2ccccc2)CS(=O)(=O)CS1(=O)=O (stereo unspecified) | > 100 µM | > 100 µM | > 100 µM | > 100 µM | – | > 100 µM | > 100 µM | – | – | – | – | – | – | – | – | – | – |
| Cc1cc(Nc2c3ccccc3nc3ccccc23)ccc1NS(C)(=O)=O | 12.5 µM | – | 17.9 µM | 16.2 µM | 22 µM | 22.2 µM | 11.7 µM | 20.3 µM | 9.61 µM | 2.96 µM | 3.25 µM | 4.61 µM | 4.2 µM | 3.28 µM | 4.41 µM | 6.14 µM | 3.23 µM |
| COC(=O)CCC(=O)Nc1cc(Cl)ccc1Cl | > 100 µM | > 100 µM | > 100 µM | > 100 µM | > 100 µM | > 100 µM | – | > 100 µM | > 100 µM | – | – | – | – | – | – | – | – |
| COc1ccc(N/N=C(\CCN(C)C)c2ccccc2)cc1 | 4.84 µM | 56.9 µM | 9.77 µM | 18 µM | – | 91.7 µM | 6.02 µM | 23.5 µM | 44 µM | – | – | – | – | – | – | – | – |
| CN(C)CCNC(=O)c1cccc2c(Nc3ccc(S(N)(=O)=O)cc3)c3ccccc3nc12 | 5.2 µM | 10.2 µM | 11.6 µM | – | 3.05 µM | 6.56 µM | – | – | > 100 µM | – | – | – | – | – | – | – | – |
| COc1cc(O)c2c(c1)C(=O)C=C(Cl)C2=O | > 100 µM | > 100 µM | – | > 100 µM | > 100 µM | > 100 µM | > 100 µM | > 100 µM | > 100 µM | – | – | – | – | – | – | – | – |
| O=C(Cc1nc2ccccc2s1)C(=O)Nc1cccc(Cl)c1 | > 100 µM | > 100 µM | > 100 µM | > 100 µM | > 100 µM | > 100 µM | > 100 µM | > 100 µM | – | – | – | – | – | – | – | – | – |
| CC(=O)OC1CC2Oc3ccc(C)cc3C(C)(O2)C1=O (stereo unspecified) | > 100 µM | > 100 µM | > 100 µM | > 100 µM | > 100 µM | – | > 100 µM | > 100 µM | > 100 µM | – | – | – | – | – | – | – | – |
| COc1ccc(NC(=O)CC/C(CC(=O)C(C)(C)C)=N\NC(=O)C(N)=O)cc1 | > 100 µM | > 100 µM | > 100 µM | > 100 µM | > 100 µM | > 100 µM | – | > 100 µM | > 100 µM | – | – | – | – | – | – | – | – |

Reference: PubChem BioAssay (NCI)
